Data reported in patent publication US8173788B2, “Peptide having ability to activate cancer-related gene” (priority 2005, dated 2012).
Where no end group is shown, it is not given here.

Key:
[1] = system: human normal peripheral blood monocyte; experiment: Influence of the artificially synthesized peptide on normal cell genes: coculture 7 hr, DNA chip system (Clontech), about 55000 human genes (Table 4); format: cell-based; details: monocytes, 7 hr
Method: (a) The peptide obtained in Example 3 was added to a human normal peripheral blood monocyte culture system (10 to 100 μg peptide/1×10^6 to 1×10^7 monocytes), and they were cocultured for 7 hr. Then, mRNA was extracted from the monocytes and was applied to analysis for up-regulation and down-regulation in respect to about 55000 human genes by using DNA chip system (Clontech).

[2] = system: peripheral blood monocytes; experiment: Effect of the artificially synthesized peptide on total mRNA amount of peripheral blood monocytes; format: cell-based, human; design: reduction ratio: concentration or dose not given beside the values; details: peptide 7 hr; for post total RNA: 1 × 10^7 monocytes
Method: (b) The peptide obtained in Example 3 was added to a culture medium (10 to 100 μg peptide/1×10^7 monocytes) for human normal peripheral blood monocytes extracted from subjects shown in Table 5 below, and they were cocultured for 7 hr. Then, total mRNA was extracted from the monocytes, and the amount of the total mRNA was measured and compared to that of the total mRNA before the treatment with the peptide.

[3] = system: peripheral blood monocytes; experiment: RT-PCR gene pattern change after 7 hr peptide treatment, peripheral blood monocytes; format: cell-based, human
Method: (§1) In order to examine influences at a gene level of the peptide on normal cells, RT-PCR was performed by adding the peptide artificially synthesized in Example 3 to the normal cells.
(§2) (1) Normal cells were treated with the artificially synthesized peptide for 7 hr as follows:
(§3) Then, total RNA was extracted from the above-treated normal cells, untreated normal cells, and squamous-cell carcinoma cells by using an RNA extraction kit (QIAGEN). The numbers of the treated cells and the untreated cells were the same.
(§4) Reverse transcription was performed by using 30 μg of each extracted total RNA to generate cDNA pools.
(§5) PCR was conducted using each of the cDNA pools as templates.
(§6) The condition for the PCR was as follows:
(§7) (2) Each of the PCR products was applied to electrophoresis and detected by using a fluorescence label.

[4] = system: Skin fibroblast cell; experiment: RT-PCR gene pattern change after 7 hr peptide treatment, skin fibroblast cell; format: cell-based; details: 11-amino acid primer (full sequence), skin fibroblast sample
Method: as §1, §2, §3, §4, §5, §6, §7

[5] = system: Kidney mesangium cell; experiment: RT-PCR gene pattern change after 7 hr peptide treatment, kidney mesangium cell; format: cell-based; details: 11-amino acid primer (full sequence), kidney mesangium sample
Method: as §1, §2, §3, §4, §5, §6, §7

[6] = system: Pancreatic epithelial cells; experiment: RT-PCR gene pattern change after 7 hr peptide treatment, pancreatic epithelial cells; format: cell-based; details: pancreatic epithelial sample
Method: as §1, §2, §3, §4, §5, §6, §7

[7] = system: Normal lymphocytes; experiment: Exhaustive gene analysis of 55000 genes by DNA chip system (Codelink System); format: cell-based; details: normal lymphocytes treated vs untreated, Codelink slide 55000 genes
Method: Characteristics of the peptide of the present invention were clarified by conducting the analysis described below in order to examine effects of the peptide on gene expression of normal cells.
Normal lymphocytes were treated with the peptide of the present invention as in Examples 4 and 5, and the gene expression was compared to that of untreated lymphocytes by using a DNA chip system (Codelink System). In this examination, cRNA derived from bacteria was used as a positive control. Total RNA was extracted by using the QIAGEN RNA extraction kit used in Example 5. The total RNA (5 to 10 μg) was subjected to reverse transcription using an oligo-dT primer having a T7 RNA polymerase promoter region as a reverse primer to generate a pool of cDNAs complementary to the mRNAs. The condition for the reverse transcription was the same as that in Example 5. […] The amount of the cRNA was measured with a spectrophotometer to confirm at least 10 μg of the cRNA. […]
The hybridization chamber was removed and the plate was washed at 46° C. for 1 hr. The hybridization was detected with Cy5-streptavidin (1:500 dilution, at room temperature for 30 min). […]
(5) The result was analyzed by exclusive software for the Codelink analysis. […]

[8] = system: rejection in skin transplantation; experiment: Skin transplantation test, C57Black/6N skin to back of BALB/c mouse; format: in vivo; details: 50 μg peptide/0.1 ml/mouse subcutaneously
Method: Then, the cellular immunity-inhibition activity of the peptide was examined from the viewpoint of activity for preventing rejection in skin transplantation.
The peptide of the present invention was administered to mice who have received skin transplantation according to the schedule shown in Table 6.

[9] = subject eight, healthy subject (smoker)
[10] = subject five, healthy subject (side-stream smoke)
[11] = subject four, cancer patient received chemotherapy and radiotherapy
[12] = subject one, healthy subject (side-stream smoke)
[13] = subject seven, healthy subject (smoker)
[14] = subject two, healthy subject (side-stream smoke)

QPQFGRRMESK [artificially synthesized peptide]
Expression of TNF [1]: not enhanced | expression of cell growth factor such as a platelet-derived growth factor [1]: enhanced | expression of genes relating to anti-tumor immunity [1]: highly suppressed | expression of most of important factors as an operating factor for the humoral immunity mechanism [1]: enhanced | Expression of a gene relating to inhibition of metastasis of breast cancer, suppressed to ([1]; fraction of baseline): 1/60 | expression of RAS suppressor protein gene, suppressed to ([1]; fraction of baseline): 1/43 | expression of a gene relating to inhibition of leukemia, suppressed to ([1]; fraction of baseline): 1/43 | post total RNA ([2]; subject eight, healthy subject (smoker), pre 45.875 μg/ml): 0.958 µg/mL | post/pre [2, 9]: 2% | reduction ratio [2, 9]: 98% | post total RNA ([2]; subject five, healthy subject (side-stream smoke), pre 58.076 μg/ml): 19.551 µg/mL | post/pre [2, 10]: 33.6% | reduction ratio [2, 10]: 66.4% | post total RNA ([2]; subject four, cancer patient received chemotherapy and radiotherapy, pre 8.078 μg/ml): 1.757 µg/mL | post/pre [2, 11]: 21.7% | reduction ratio [2, 11]: 78.3% | post total RNA ([2]; subject one, healthy subject (side-stream smoke), pre 69.622 μg/ml): 7.735 µg/mL | post/pre [2, 12]: 11.1% | reduction ratio [2, 12]: 88.9% | post total RNA ([2]; subject seven, healthy subject (smoker), pre 20.779 μg/ml): 9.188 µg/mL | post/pre [2, 13]: 44.2% | reduction ratio [2, 13]: 55.8% | post total RNA ([2]; subject six, healthy subject, pre 52.318 μg/ml): 17.681 µg/mL | post/pre ([2]; subject six, healthy subject): 33.7% | reduction ratio ([2]; subject six, healthy subject): 66.3% | post total RNA ([2]; subject three, healthy subject, pre 61.145 μg/ml): 16.562 µg/mL | post/pre ([2]; subject three, healthy subject): 27% | reduction ratio ([2]; subject three, healthy subject): 73% | post total RNA ([2]; subject two, healthy subject (side-stream smoke), pre 66.804 μg/ml): 14.742 µg/mL | post/pre [2, 14]: 22% | reduction ratio [2, 14]: 78% | gene band pattern by PCR before and after peptide treatment ([3]; 11-amino acid primer (full sequence), peripheral blood sample (H.S.), 7 hr): a difference in the band patterns was observed | gene pattern change by PCR after peptide treatment ([3]; 11-amino acid primer, sample of lanes 2 and 3 of FIG. 2B, healthy young man in twenties): gene mutation was hardly induced | gene band pattern by PCR before and after peptide treatment [4]: a difference in the band patterns was observed | gene band pattern by PCR before and after peptide treatment [5]: a difference in a position having a high concentration was observed | gene band pattern by PCR before and after peptide treatment ([6]; 7-amino acid primer (partial sequence)): a difference in the band patterns was observed | gene band pattern by PCR before and after peptide treatment ([6]; 11-amino acid primer (full sequence)): a difference in a position having a high concentration was observed | expression status of cancer-related genes [7]: Cancer-inducing expression status of cancer-related genes was observed | delay of skin rejection versus control ([8]; intermittent): 5 days | rejection in skin transplantation / skin graft survival ([8]; intermittent): the rejection in the skin transplantation was suppressed and skin graft survival was prolonged | skin rejection occurred, days after the transplantation ([8]; intermittent, 6 mice, control 7 days): 12 days | survival of the transplanted skin of one mouse after the transplantation ([8]; one mouse): 14 days
